Values after ≈ are worked out from the molar mass of the structure shown. Read-outs that look alike come from different tables or passages of the source.
Columns and labels:
[1] = test system: Escherichia coli kauffmann 0-1; assay: MIC against bacteria (Table I), strain (7); assay type: cell-based; settings: Escherichia coli
Text: (§1) Now, for illustrating the excellent pharmacological effects of the compounds of this invention, the values of MIC (γ/ml.) of the compounds against various bacteria are shown in Table 1, in which the compounds of this invention used are shown by example numbers.
(7) Escherichia coli kauffmann 0-1

Staphylococcus Onuma = assay: MIC against bacteria (Table I), strain (18); assay type: cell-based
Text: as §1
(18) Staphylococcus Onuma

Salmonella enteritidis = assay: MIC against bacteria (Table I), strain (10); assay type: cell-based; settings: Salmonella enterica, ENTERITIDIS
Text: as §1
(10) Salmonella enteritidis

[2] = test system: Bacillus subtilis ATCC 6633; assay: MIC against bacteria (Table I), strain (14); assay type: cell-based; settings: ATCC6633
Text: as §1
(14) Bacillus subtilis ATCC 6633

Shigella sonnei II 37148 = assay: MIC against bacteria (Table I), strain (12); assay type: cell-based; settings: II37148; (12) Shigella sonnei II 37148; read-out: MIC
Text: as §1

[3] = test system: Pseudomonas aeruginosa ATCC 8689; assay: MIC against bacteria (Table I), strain (4); assay type: cell-based; settings: ATCC8689
Text: as §1
(4) Pseudomonas aeruginosa ATCC 8689

[4] = Residual antibacterial activity after incubation with 90% plasma (Table 4); assay type: in vitro ADME, male Sprague-Dowley rat; settings: 90% rat plasma; for remaining at 0.25 h / remaining at 0.5 h / remaining at 1.5 h: 90% plasma; for remaining at 0.25 h: 15 minute; for remaining at 0.5 h: 30 minute; for remaining at 1.5 h: 90 minute; for Residual activity: 0 minute
Procedure: (§2) The relation between the reaction period of time and the antibacterial activity (residual activity, %) when these compounds are incubated with the plasma and the liver homogenate of a male Sprague-Dowley rat is shown in Table 4. The residual antibacterial activity was measured by a thin-layer cup method according to Bacillus subtilis ATCC 6633.
A*Residual activity (%) when incubated with 90% plasma.

Salmonella typhi H901 W = assay: MIC against bacteria (Table I), strain (9); assay type: cell-based; settings: Salmonella enterica, TYPHI
Text: as §1
(9) Salmonella typhi H901 W

Proteus vulgaris 0X 19US = assay: MIC against bacteria (Table I), strain (2); assay type: cell-based; settings: 0X19US
Text: as §1
(2) Proteus vulgaris 0X 19US

[5] = test system: Staphylococcus Shimanishi; assay: MIC against bacteria (Table I), strain (17); assay type: cell-based
Text: as §1
(17) Staphylococcus Shimanishi

[6] = test system: Shigella flexneri 2a 1675; assay: MIC against bacteria (Table I), strain (11); assay type: cell-based; settings: 2A1675; (11) Shigella flexneri 2a 1675; read-out: MIC
Text: as §1

[7] = test system: β-lactamase isolated from Pseudomonas aeruginosa 21; assay: Resistance to β-lactamase: amount of unaltered test sample (Table 3); assay type: biochemical; settings: initial concentration 100γ/ml
Text: For example, the relation between the amount (γ/ml) of an unaltered test sample at an initial concentration of the sample 100γ/ml against β-lactamase isolated from Pseudomonas aeruginosa 21 at various dilutions of the enzyme were investigated.

[8] = test system: Pseudomonas aeruginosa 99 (Gentamycin resistant); assay: MIC against bacteria (Table I), strain (5); assay type: cell-based
Text: as §1
(5) Pseudomonas aeruginosa 99 (Gentamycin resistant)

[9] = test system: Staphylococcus aureus 209P; assay: MIC against bacteria (Table I), strain (16); assay type: cell-based; settings: Staphylococcus aureus, 209P
Text: as §1
(16) Staphylococcus aureus 209P

[10] = test system: Klebsiella pneumoniae ATCC 10031; assay: MIC against bacteria (Table I), strain (8); assay type: cell-based; settings: ATCC10031
Text: as §1
(8) Klebsiella pneumoniae ATCC 10031

[11] = assay type: in vitro ADME
Text: Still another advantage of the compounds of this invention is that they are not inactivated in the internal organs of the body. For example, when the compounds of this invention and cephalotin are each homogenized with internal organs, the compounds of this invention are not decomposed while cephalotin is decomposed.

[12] = Residual antibacterial activity after incubation with 10% liver homogenate (Table 4); assay type: in vitro ADME, male Sprague-Dowley rat; settings: for remaining at 0.25 h / remaining at 0.5 h / remaining at 1.5 h: 10% liver homogenate
Procedure: as §2
B*Residual activity (%) when incubated with 10% liver homogenate.

[13] = test system: Proteus mirabilis IXM OM-19; assay: MIC against bacteria (Table I), strain (3); assay type: cell-based; settings: IXMOM19; (3) Proteus mirabilis IXM OM-19; read-out: MIC
Text: as §1
(3) Proteus mirabilis IXM OM-19

[14] = test system: Bacillus megatherium 10778; assay: MIC against bacteria (Table I), strain (13); assay type: cell-based; settings: (13) Bacillus megatherium 10778; read-out: MIC
Text: as §1

[15] = Solubility of salts in water (Table 2); assay type: physicochemical; settings: disodium salt, water, showing pH 7.4; read-out: Solubility: disodium salt dissolved in water in an amount of
Text: An advantage of the compounds of this invention is that the salts, for example, sodium salts of these compounds are readily soluble in water at pH of living bodies, which makes them suitable for injections at high concentration. The solubility of these compounds are illustrated in Table 2 together with a control example.

[16] = test system: Micrococcus flavus ATCC 10240; assay: MIC against bacteria (Table I), strain (15); assay type: cell-based; settings: ATCC10240; (15) Micrococcus flavus ATCC 10240; read-out: MIC
Text: as §1
(15) Micrococcus flavus ATCC 10240

[17] = test system: Psuedomonas ovalis IMA 1002; assay: MIC against bacteria (Table I), strain (6); assay type: cell-based; settings: (6) Psuedomonas ovalis IMA 1002; read-out: MIC
Text: as §1
(6) Psuedomonas ovalis IMA 1002

Proteus vulgaris OXK US = assay: MIC against bacteria (Table I), strain (1); assay type: cell-based; settings: (1) Proteus vulgaris OXK US; read-out: MIC
Text: as §1
(1) Proteus vulgaris OXK US

SMILES: CC(=O)OCC1=C(C(=O)O)N2C(=O)[C@@H](NC(=O)Cc3cccs3)[C@H]2SC1 [Cephalotin, reference compound]
- MIC [1]: 3.13 µg/mL (≈ 7.9 µM)
- MIC (Staphylococcus Onuma; Staphylococcus): 0.39 µg/mL (≈ 0.984 µM)
- MIC (Salmonella enteritidis): 0.39 µg/mL (≈ 0.984 µM)
- MIC ([2]; Bacillus subtilis): < 0.09 µg/mL
- MIC (Shigella sonnei II 37148): 6.25 µg/mL (≈ 15.8 µM)
- MIC ([3]; Pseudomonas aeruginosa): > 100 µg/mL
- remaining at 0.25 h [4]: 87%
- remaining at 0.5 h [4]: 66%
- remaining at 1.5 h [4]: 36%
- Residual activity [4]: 100%
- MIC (Salmonella typhi H901 W): 1.56 µg/mL (≈ 3.93 µM)
- MIC (Proteus vulgaris 0X 19US; Proteus vulgaris): 12.5 µg/mL (≈ 31.5 µM)
- MIC ([5]; Staphylococcus): 0.39 µg/mL (≈ 0.984 µM)
- MIC [6]: 6.25 µg/mL (≈ 15.8 µM)
- Amount of unaltered test sample ([7]; β-lactamase dilution ×2): 0 µg/mL
- Amount of unaltered test sample ([7]; β-lactamase dilution ×4): 0 µg/mL
- Amount of unaltered test sample ([7]; β-lactamase dilution ×8): 0 µg/mL
- Amount of unaltered test sample ([7]; β-lactamase dilution ×16): 0 µg/mL
- Amount of unaltered test sample ([7]; β-lactamase dilution ×32): 2.6 µg/mL
- Amount of unaltered test sample ([7]; β-lactamase dilution ×64): 11.8 µg/mL
- Amount of unaltered test sample ([7]; β-lactamase dilution ×128): 46.8 µg/mL
- Amount of unaltered test sample ([7]; β-lactamase dilution ×256): 81.6 µg/mL
- Amount of unaltered test sample ([7]; β-lactamase dilution ×512): 100 µg/mL
- Amount of unaltered test sample ([7]; β-lactamase dilution ×1024): 100 µg/mL
- MIC ([8]; Pseudomonas aeruginosa): > 100 µg/mL
- MIC [9]: 0.19 µg/mL (≈ 0.479 µM)
- MIC ([10]; Klebsiella pneumoniae): 0.78 µg/mL (≈ 1.97 µM)
- Decomposition when homogenized with internal organs [11]: decomposed
- Residual activity ([12]; rat, 0 min): 100%
- remaining at 0.25 h ([12]; rat): 17.2%
- remaining at 0.5 h ([12]; rat): 12.2%
- remaining at 1.5 h ([12]; rat): 12.6%

SMILES: O=C(O)CCc1nnc(SCC2=C(C(=O)O)N3C(=O)[C@@H](NC(=O)[C@H](NC(=O)c4cnccc4O)c4ccccc4)[C@H]3SC2)s1 [Example 6, 7-[D-α-(4-hydroxynicotinoylamido)-α-phenylacetamido]-3-(5-carboxyethyl-1,3,4-thiadiazol-2-yl)thiomethyl-Δ^3-cephem-4-carboxylic acid]
- MIC [1]: 3.13 µg/mL (≈ 4.77 µM)
- MIC (Staphylococcus Onuma; (18) Staphylococcus Onuma, read-out: MIC): 12.5 µg/mL (≈ 19 µM)
- MIC (Salmonella enteritidis): 0.39 µg/mL (≈ 0.594 µM)
- MIC ([2]; (14) Bacillus subtilis ATCC 6633, read-out: MIC): 0.39 µg/mL (≈ 0.594 µM)
- MIC [13]: 0.39 µg/mL (≈ 0.594 µM)
- MIC (Shigella sonnei II 37148): 3.13 µg/mL (≈ 4.77 µM)
- MIC ([3]; (4) Pseudomonas aeruginosa ATCC 8689, read-out: MIC): 12.5 µg/mL (≈ 19 µM)
- remaining at 0.25 h [4]: 92%
- remaining at 0.5 h [4]: 102%
- remaining at 1.5 h [4]: 102%
- Residual activity [4]: 100%
- MIC (Salmonella typhi H901 W): 1.56 µg/mL (≈ 2.38 µM)
- MIC (Proteus vulgaris 0X 19US; (2) Proteus vulgaris 0X 19US, read-out: MIC): < 0.09 µg/mL
- MIC [14]: 0.39 µg/mL (≈ 0.594 µM)
- solubility [15]: > 200 mg/mL
- MIC ([5]; (17) Staphylococcus Shimanishi, read-out: MIC): 6.25 µg/mL (≈ 9.52 µM)
- MIC [6]: 0.78 µg/mL (≈ 1.19 µM)
- MIC [16]: 6.25 µg/mL (≈ 9.52 µM)
- MIC ([8]; (5) Pseudomonas aeruginosa 99 (Gentamycin resistant), read-out: MIC): 6.25 µg/mL (≈ 9.52 µM)
- MIC [17]: 6.25 µg/mL (≈ 9.52 µM)
- MIC [9]: 1.56 µg/mL (≈ 2.38 µM)
- MIC ([10]; (8) Klebsiella pneumoniae ATCC 10031, read-out: MIC): 6.25 µg/mL (≈ 9.52 µM)
- MIC (Proteus vulgaris OXK US): < 0.09 µg/mL
- remaining at 0.25 h ([12]; 10% rat liver homogenate, 15 minute, read-out: Residual activity): 95.7%
- remaining at 0.5 h ([12]; 10% rat liver homogenate, 30 minute, read-out: Residual activity): 89.1%
- remaining at 1.5 h ([12]; 10% rat liver homogenate, 90 minute, read-out: Residual activity): 91.3%
- Residual activity ([12]; 10% rat liver homogenate, 0 minute): 100%

Source: US4068074A, “Cephalosporin derivatives having at the 3-position of the cephem ring a heterocyclic thiomethyl group with a carboxy or sulfo group and at the 7-position of the cephem ring an α-heterocylic acylaminophenyl-acetamide group” (priority 1974, dated 1978)
